Series [1] can be described thus: NP TLC on control silica gel plates without protein modifier (Rf). In kind it is physicochemical. To be noted: silica gel 60 F254 without BSA (control), mobile phase acetonitrile:acetate buffer pH 7.4:methanol 60:20:20, λ = 240 nm. The protocol:
TLC was performed in normal and reversed phase (NP and RP) systems. Aluminum plates with silica gel (Merck, TLC Silica gel 60 F254) were used in the NP system and aluminum plates with silanized silica gel—RP (Merck, TLC Silica gel 60 RP-2 F254, silanized) were used in the RP system. The stationary phase surface modifying protein was bovine serum albumin. A 2-mg/mL solution of BSA (Sigma Aldrich, Bovine serum albumin lyophilised powder) in distilled water was applied on the surface using Desaga Sprayer SG 1 and air-dried.
Drug solutions in methanol (1 mg/mL) were applied on the plates with the Desaga HPTLC-Applicator AS 30, then the plates were developed in the mobile phase composed of acetonitrile, acetate buffer pH 7.4 and methanol, 60:20:20 (v/v/v). All solvents used—water, methanol and acetonitrile—were purchased from J.T. Baker (HPLC Gradient Grade). The acetate buffer (20mM) was prepared by dissolving 1.54 g of ammonium acetate in 1 L of distilled water. The pH was then adjusted with concentrated ammonia solution.
The mobility of the compounds was initially determined on NP and RP plates without the participation of the protein modifier. These were labeled as controls (C). The obtained retardation factor (Rf) values could be used to determine the composition of the mobile phase, as well as the specific effect of the protein modifier on the mobility of the APIs. […]

A further series has as its target bovine serum albumin (Bos taurus, UniProt P02769). The experiment in a line: NP TLC on BSA-impregnated silica gel plates (retardation factor Rf). Format: binding. To be noted: silica gel 60 F254 impregnated with BSA, mobile phase acetonitrile:acetate buffer pH 7.4:methanol 60:20:20, λ = 240 nm.
In a further series the target is human serum albumin (Homo sapiens, UniProt P02768). Briefly: HPLC on column with immobilized human serum albumin (CHIRALPAK HSA). Format: binding. The note with it: mobile phase acetate buffer pH 7.4:acetonitrile:methanol 85:10:5; flow 0.9 mL/min; 25 degrees Celsius; void time marker methanol t = 1.63.
human serum albumin, sequence (P02768 25-609): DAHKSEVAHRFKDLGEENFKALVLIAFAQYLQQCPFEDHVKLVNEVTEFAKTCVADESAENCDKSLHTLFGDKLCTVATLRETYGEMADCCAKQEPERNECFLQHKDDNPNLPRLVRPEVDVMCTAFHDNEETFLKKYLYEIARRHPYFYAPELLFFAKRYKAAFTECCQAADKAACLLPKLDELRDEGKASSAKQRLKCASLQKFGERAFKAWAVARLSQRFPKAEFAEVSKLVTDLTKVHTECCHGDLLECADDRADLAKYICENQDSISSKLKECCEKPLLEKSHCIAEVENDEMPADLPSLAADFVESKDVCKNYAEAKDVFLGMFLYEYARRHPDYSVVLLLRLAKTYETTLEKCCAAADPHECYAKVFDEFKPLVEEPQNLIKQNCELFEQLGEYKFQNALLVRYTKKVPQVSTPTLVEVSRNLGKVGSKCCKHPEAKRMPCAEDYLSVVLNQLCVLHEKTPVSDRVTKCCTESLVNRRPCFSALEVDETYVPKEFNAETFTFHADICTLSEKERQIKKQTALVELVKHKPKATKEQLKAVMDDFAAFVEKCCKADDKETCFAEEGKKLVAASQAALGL

bovine serum albumin, sequence (P02769 25-607): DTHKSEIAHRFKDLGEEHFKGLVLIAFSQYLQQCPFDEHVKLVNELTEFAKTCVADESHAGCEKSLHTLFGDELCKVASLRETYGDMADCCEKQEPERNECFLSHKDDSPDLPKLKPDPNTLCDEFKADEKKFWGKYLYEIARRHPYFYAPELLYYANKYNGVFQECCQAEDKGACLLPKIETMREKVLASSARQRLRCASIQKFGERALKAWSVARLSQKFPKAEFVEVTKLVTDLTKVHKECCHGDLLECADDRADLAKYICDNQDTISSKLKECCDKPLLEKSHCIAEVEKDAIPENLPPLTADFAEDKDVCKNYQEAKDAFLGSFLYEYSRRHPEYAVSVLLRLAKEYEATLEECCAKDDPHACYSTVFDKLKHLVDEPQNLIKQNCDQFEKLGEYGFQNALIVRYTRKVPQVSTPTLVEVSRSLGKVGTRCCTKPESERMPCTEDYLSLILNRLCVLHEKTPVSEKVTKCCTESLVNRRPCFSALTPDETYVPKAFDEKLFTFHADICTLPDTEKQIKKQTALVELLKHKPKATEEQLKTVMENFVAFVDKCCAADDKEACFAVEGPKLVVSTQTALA
Procedure for human serum albumin: HPLC analysis was performed on a Perkin Elmer Series 200 apparatus with a UV-VIS spectrometer for detection with an analytical wavelength of 210 nm. The mobile phase consisted of an acetate buffer with pH 7.4:acetonitrile:methanol, 85:10:5 (v/v/v). All solvents used—water, methanol and acetonitrile—were purchased from J.T. Baker (HPLC gradient class). The acetate buffer (10 mM) was prepared by dissolving 0.77 g of ammonium acetate in 1 L of distilled water. The pH was then adjusted with a concentrated ammonia solution.
API solutions in methanol (1 mg/mL, volume of injection: 10 μL) were injected into the HSA column using an automatic autosampler. The flow rate of the mobile phase was 0.9 mL/min. Since the column could not be thermostated, the room temperature was kept constant at 25 degrees Celsius by air conditioning. Chromatographic data (retention factor k and derivative: log k) were obtained for 129 APIs using the TotalChrom software connected to HPLC. Factor k, which is the ratio between the amount of analyte in the stationary phase to the amount in the mobile phase, was obtained from the equation k = (tR − tM)/tM where tR is retention time and tM is void time. The experiment was then repeated, and the collected retention factors (k) were means values from both series.

As for `CN(C)CCC=C1c2ccccc2COc2ccccc21` [doxepin], the “Rf, control NP plate” value in series [1] was determined as 0.34. On bovine serum albumin, the “Rf, BSA-impregnated NP plate” value came out at 0.31.

On to `CC(C)c1nc(N(C)S(C)(=O)=O)nc(-c2ccc(F)cc2)c1/C=C/[C@@H](O)C[C@@H](O)CC(=O)O` [rosuvastatin], for which the “retention time (t) on HPLC column with immobilized HSA” value at human serum albumin is 3.71.

These data come from PMC7997166, “In Silico Plasma Protein Binding Studies of Selected Group of Drugs Using TLC and HPLC Retention Data” (Pharmaceuticals, 2021).
